Measured values taken from patent US20140066370A1, “Polypeptide Conjugate” (priority 2009, published 2014).
Read-outs that look alike come from different tables or passages of the source. Marks after values point to notes of the source that are not given here.

Legend:
[1] = DIO rats, sc infusion
Description: (§1) Various metabolic and PK parameters were evaluated.
(§2) Study Design. The Polypeptide Conjugates were tested relative to vehicle (50% DMSO in sterile water) and parent compounds alone and in combination (see Table 1).
(§3) Food intake and body weight were measured weekly. Body composition was assessed on day −1 and day 28 using an NMR instrument (Echo Medical Systems, Houston, Tex.). Adiposity (percent fat mass) was defined as the amount of fat mass relative to body weight (fat mass/body weight×100). Blood was collected via tail vein on day 14. On day 28 a sample of blood was drawn via the jugular vein and animals were euthanized by isoflurane overdose. Mini-pumps were immediately removed, animals were subjected to a brief NMR scan, and tissues were collected for future histological examination and preliminary toxicological assessment.
(§4) Hormone and metabolite analyses. Plasma levels of study drug were measured at day 14 and termination by an ELISA. Whole blood percent hemoglobin A1c (% HbA1c), plasma triglyceride, total cholesterol, HDL cholesterol and plasma glucose at day 14 and at termination were measured using an Olympus bioanalyzer (Olympus America Diagnostics). Plasma insulin levels at day 14 and at termination were analyzed by an ELISA kit (Rat/Mouse Insulin ELISA, Linco Diagnostics).

[2] = system: diet-induced obese (DIO) male Sprague Dawley rats; test: DIO rat 4-week sc infusion: body composition by NMR; format: in vivo
Description: as §1, §2, §3
(§5) Statistical Analysis. Data were analyzed using one-way analysis of variance (ANOVA) with Newman-Keuls post-hoc comparisons. Significance was assumed for p<0.05. Graphs were generated using Prism 4 for Windows (Graphpad Software, San Diego, Calif.). All data points are expressed as mean±SEM.
To correct for loss of body weight, reductions in fat and lean mass were adjusted for terminal body weight to calculate the change in adiposity (percent fat mass) and change in percent lean mass.

[3] = human kidney brush border membrane matrices, 5 hr incubation; detection limit 10%
NIH/Swiss female mice = test: basal glucose lowering assay (Oral Glucose Tolerance Test; OGTT); format: in vivo, mouse; conditions: IP at t=-5 min, 4-hour fasted mice, glucose gavage […], blood glucose at t=30 minutes
Description: Polypeptide Conjugates and parent compounds were analyzed in an in vivo basal glucose lowering assay. This assay reflects the conjugate polypeptide's ability to enhance insulin-mediated glucose clearance of orally administered glucose challenge (Oral Glucose Tolerance Test; OGTT). The OGTT is used to diagnose diabetes, although the simpler fasting plasma glucose test, which measures a subject's plasma glucose level after fasting for at least eight hours, is preferred. The following procedure was used: Test compound at various concentrations was injected intraperitoneally (IP) at t=−5 min to 4-hour fasted NIH/Swiss female mice. Glucose gavage (1.5 g/kg) was given at t=0. Sample was taken at t=30 minutes as tail blood glucose using a OneTouch® Ultra® (LifeScan, Inc., Milpitas, Calif.). Significant effects were identified by ANOVA (p<0.05), followed by Dunnett's post test using GraphPad Prism version 4.00 for Windows (GraphPad Software, San Diego Calif.).

[4] = system: diet-induced obese (DIO) male Sprague Dawley rats; test: DIO rat 4-week constant sc infusion: cumulative food intake; format: in vivo; conditions: highest dose tested (100 nmol/kg/d)
Description: as §1, §2, §3, §5

[5] = in vivo blood calcium lowering (amylin agonist property)
ob/ob mice = test: 28 days of exposure in ob/ob mice (obese and diabetic); format: in vivo, mouse
male Sprague Dawley rats = test: delay of gastric emptying (acetaminophen appearance in plasma); format: in vivo, rat; conditions: for Percent Inhibition of Gastric Emptying 4 hr / Percent Inhibition of Gastric Emptying 6 hr / Percent Inhibition of Gastric Emptying 8 hr: 1 nmol/kg single sc injection
Description: Polypeptide Conjugates and parent compounds were analyzed for their ability to delay gastric emptying in rats. […] Rats then received an oral gavage of 33 mg acetaminophen/1 ml Orablend (Paddock Laboratories, Inc., MN USA) at t=3.5 hr, 5.5 hr or 7.5 hr post-injection. Blood was collected for measurement of acetaminophen at 4 hr, 6 hr or 8 hr after SC injection. Gastric emptying was assessed by the appearance of acetaminophen in plasma 30 min after oral gavage.

[6] = human plasma, 5 hr incubation; detection limit 10%
rats = test: acute kaolin intake (pica, nausea) and chow intake in rats; format: in vivo, rat; conditions: 24 hr post injection
Description: To investigate possible nausea effects of the conjugate polypeptide, acute kaolin intake was measured in rats. Pica behavior (ingestion of dirt/clay) is a marker of nausea in rodents, typically associated with reduced food intake and weight loss. Pica can be assessed by measuring intake of the synthetic clay kaolin. […] Rats were acclimated to kaolin for 3 days as kaolin clay mixed in with regular chow. A 4 hr and a 24 hr baseline kaolin and chow intake were then measured. Subsequently, rats were fasted for approximately 16 hrs after which test compound was injected at the dose indicated below. At 24 hr post injection chow and kaolin consumption was measured.

[7] = system: diet-induced obese (DIO) male Sprague Dawley rats; test: DIO rat 4-week constant sc infusion: body weight; format: in vivo
Description: as §1, §2, §3, §5

[8] = acute reduction of food intake; format: in vivo
[9] = system: diet-induced obese (DIO) male Sprague Dawley rats; test: DIO rat 4-week sc infusion: hormone and metabolite analyses (HbA1c, insulin, lipids, glucose); format: in vivo; conditions: for Insulin 14 day / Insulin 28 day: fed state plasma; for Glucose / HDL cholesterol / Total cholesterol / Triglycerides: plasma after 28 days
Description: as §1, §2, §3, §5, §4
Plasma parameters. The effects of the parent and Polypeptide Conjugate compounds on the following plasma parameters were determined: percent hemoglobin A1c (HbA1c), fed state plasma insulin, and concentration of the Polypeptide Conjugate in plasma, at 14 and 28 days.

calcitonin receptors = target: T1, calcitonin receptors (Homo sapiens, UniProt P30988); test: binding selectivity for calcitonin receptors against the CGRP receptor
T1 sequence (P30988 25-474): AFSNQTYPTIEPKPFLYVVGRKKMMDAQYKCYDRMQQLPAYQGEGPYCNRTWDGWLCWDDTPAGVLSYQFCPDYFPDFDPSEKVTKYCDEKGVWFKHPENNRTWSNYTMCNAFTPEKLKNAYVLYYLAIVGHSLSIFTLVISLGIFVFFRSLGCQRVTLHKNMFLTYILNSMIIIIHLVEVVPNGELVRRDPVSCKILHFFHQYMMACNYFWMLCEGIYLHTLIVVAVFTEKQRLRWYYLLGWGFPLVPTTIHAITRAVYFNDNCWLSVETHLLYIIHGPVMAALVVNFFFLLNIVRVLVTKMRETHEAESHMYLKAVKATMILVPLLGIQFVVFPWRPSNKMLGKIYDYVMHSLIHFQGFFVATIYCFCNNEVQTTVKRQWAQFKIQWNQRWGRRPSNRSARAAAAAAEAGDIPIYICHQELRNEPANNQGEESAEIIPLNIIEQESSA

amylin receptor = target: T2, amylin receptor (Homo sapiens, UniProt P30988); test: binding selectivity for amylin receptor against the CGRP receptor
T2 sequence (P30988 25-474): T1 sequence (P30988 25-474)

## HGEGTFTSDLSKQLEEEAVRLFIEWLKQGGPSKEIISGGGKCNTATCVLGRLSQELHRLQ TYPRTNTGSNTY-NH2 [Cmpd 2A]
[1]; 3 nmol/kg/day
  plasma drug level (Cmpd 2A or Cmpd 1A) 14 day: 15 ± 6^a ng/mL
  plasma drug level (Cmpd 2A or Cmpd 1A) 28 day: 65 ± 35^a ng/mL
[1]; 10 nmol/kg/day
  plasma drug level (Cmpd 2A or Cmpd 1A) 14 day: 48 ± 16^a ng/mL
  plasma drug level (Cmpd 2A or Cmpd 1A) 28 day: 345 ± 67^a ng/mL
[1]; 30 nmol/kg/day
  plasma drug level (Cmpd 2A or Cmpd 1A) 14 day: 65 ± 7^a ng/mL
  plasma drug level (Cmpd 2A or Cmpd 1A) 28 day: 540 ± 232^a ng/mL
[1]; 100 nmol/kg/day
  plasma drug level (Cmpd 2A or Cmpd 1A) 14 day: 284 ± 79^b ng/mL
  plasma drug level (Cmpd 2A or Cmpd 1A) 28 day: 1985 ± 717^b ng/mL
[2]; 3 nmol/kg/d, day 28
  Terminal Fat Mass: 71.4 ± 12.9^a,b g
  Terminal Lean Mass: 330.5 ± 7.3^a,b g
[2]; 10 nmol/kg/d, day 28
  Terminal Fat Mass: 35.8 ± 7.7^c,d g
  Terminal Lean Mass: 280.6 ± 22.6^b g
[2]; 30 nmol/kg/d, day 28
  Terminal Fat Mass: 32.4 ± 3.8^c,d g
  Terminal Lean Mass: 306.5 ± 13.2^a,b g
[2]; 100 nmol/kg/d, day 28
  Terminal Fat Mass: 12.7 ± 4.3^d g
  Terminal Lean Mass: 277.8 ± 17.8^b g
  change in adiposity (percent fat mass): −12.2±1.3%
[2]; all doses of Table 1, day 28
  adiposity compared to vehicle controls: significantly reduced
[2]; all doses, day 28
  percent lean mass relative to vehicle controls: did not alter percent lean mass
[3]
  metabolites detected: No metabolites were detected
NIH/Swiss female mice
  ED50 in OGTT: 1.4 nmol/kg
[4]
  total food intake relative to single parent peptide administration: significantly reduced
[5]
  blood calcium: lower blood calcium
ob/ob mice
  HbA1c: HbA1c reduction
  body weight: body weight loss
  fasted blood glucose: fasted blood glucose-lowering
Male Sprague Dawley rats
  Percent Inhibition of Gastric Emptying 4 hr: 79
  Percent Inhibition of Gastric Emptying 6 hr: 49
  Percent Inhibition of Gastric Emptying 8 hr: 4
[6]
  metabolites detected: No metabolites were detected
rats; 30 nmol/kg/d
  Inhibited food intake: Yes ~68%
  Kaolin intake: 0.3 g
[7]; DIO rats
  potency at reducing body weight via sustained infusion relative to Cmpd 3A: several fold more potent
[7]; DIO rats, sc infusion, 100 nmol/kg/d
  four week vehicle-corrected weight loss: −31.5±2.7%
[7]; DIO rats, sc infusion, 100 nmol/kg/d group
  Maximal weight loss: −27.8±5.3%
[7]; DIO rats, sc infusion, doses of Table 1 (conjugates 3, 10, 30 and 100 nmol/kg/d), p<0.05
  body weight over the 28 day treatment relative to vehicle: dose-dependently reduced body weight significantly
[8]
  potency at reducing food intake acutely compared with Cmpd 3A: more potent
[9]; 3 nmol/kg/day
  HbA1c 14 day: 4.9 ± 0.1%
  Insulin 14 day: 1.8 ± 0.6^b ng/mL
  HbA1c 28 day: 4.6 ± 0.1%
  Insulin 28 day: 2.2 ± 0.9 ng/mL
  Glucose: 132 ± 9 mg/dL
  HDL cholesterol: 33 ± 2 mg/dL
  Total cholesterol: 116 ± 8 mg/dL
  Triglycerides: 295 ± 75^b mg/dL
[9]; 10 nmol/kg/day
  HbA1c 14 day: 4.9 ± 0.1^b %
  Insulin 14 day: 1.5 ± 0.2^b ng/mL
  HbA1c 28 day: 4.6 ± 0.1%
  Insulin 28 day: 1.0 ± 0.2 ng/mL
  Glucose: 115 ± 6 mg/dL
  HDL cholesterol: 33 ± 5 mg/dL
  Total cholesterol: 115 ± 14 mg/dL
  Triglycerides: 146 ± 41^b mg/dL
[9]; 30 nmol/kg/day
  HbA1c 14 day: 4.8 ± 0.1%
  Insulin 14 day: 1.8 ± 0.5^b ng/mL
  HbA1c 28 day: 4.6 ± 0.1%
  Insulin 28 day: 0.8 ± 0.1 ng/mL
  Glucose: 111 ± 2 mg/dL
  HDL cholesterol: 32 ± 1 mg/dL
  Total cholesterol: 112 ± 4 mg/dL
  Triglycerides: 128 ± 25^b mg/dL
[9]; 100 nmol/kg/day
  HbA1c 14 day: 4.8 ± 0.1%
  Insulin 14 day: 1.2 ± 0.2^b ng/mL
  HbA1c 28 day: 4.5 ± 0.1%
  Insulin 28 day: 0.7 ± 0.1 ng/mL
  Glucose: 110 ± 4 mg/dL
  HDL cholesterol: 30 ± 1 mg/dL
  Total cholesterol: 107 ± 3 mg/dL
  Triglycerides: 139 ± 17^b mg/dL

## HGEGTFTSDLSKQMEEEAVRLFIEWLKNGGGKCNTATCVLGRLSQELHRLQTYPRTNT GSNTY-NH2 [Cmpd 3A]
Calcitonin receptors
  selectivity for calcitonin receptors against the CGRP receptor: > 280 fold
NIH/Swiss female mice
  ED50 in OGTT: 6 nmol/kg
Amylin receptor
  selectivity for amylin receptor against the CGRP receptor: > 100 fold
Male Sprague Dawley rats
  Percent Inhibition of Gastric Emptying 4 hr: 33
  Percent Inhibition of Gastric Emptying 6 hr: 0
  Percent Inhibition of Gastric Emptying 8 hr: 0
Male Sprague Dawley rats; at the time point and doses tested
  inhibition of gastric emptying: did not significantly inhibit gastric emptying
rats; 15 nmol/kg/d
  Inhibited food intake: Yes ~20%
  Kaolin intake: 0.5 g
[7]; 100 nmol/kg/d of previous reference conjugates
  weight loss: ~20%
